The values below come from patent publication EP4818168A1, “FUSED RING COMPOUND, PHARMACEUTICAL COMPOSITION THEREOF AND USE THEREOF” (priority 2023, dated 2025).

The structures appear in SMILES notation. pIC50: −log10 of the molar value. Where two headings read alike, the source gives them in different places. A value given as a limit tells only on which side of the number the result lay.

In one experiment the target is T1, AURKA (Homo sapiens, UniProt O14965).
T1 construct: endogenous in cells; host or cells: Jurkat cells
T1 sequence (O14965 1-403): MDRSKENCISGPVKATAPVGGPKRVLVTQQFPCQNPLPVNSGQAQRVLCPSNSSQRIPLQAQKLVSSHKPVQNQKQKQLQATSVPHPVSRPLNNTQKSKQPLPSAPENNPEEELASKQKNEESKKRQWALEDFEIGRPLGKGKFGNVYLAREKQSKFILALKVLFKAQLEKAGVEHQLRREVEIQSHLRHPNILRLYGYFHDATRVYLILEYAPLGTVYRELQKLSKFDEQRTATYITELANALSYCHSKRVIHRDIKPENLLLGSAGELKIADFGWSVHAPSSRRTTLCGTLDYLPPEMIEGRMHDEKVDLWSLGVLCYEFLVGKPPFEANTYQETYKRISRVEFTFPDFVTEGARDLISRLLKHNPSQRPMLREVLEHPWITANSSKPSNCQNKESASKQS
The format is cell-based. The gist of the method: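 AURKA degradation read by western blot: band signal, fluorescent or chemiluminescent, curve-fitted to derive DC50. Cells were Jurkat, plated at 1×10^6 cells/500 µL with compound, then lysed and blotted onto nitrocellulose, primary antibody overnight at 4°C.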

A further experiment concerns HCC1806 cells. Briefly: CTG assay of compound inhibition on cell viability (HCC1806 cells). The format is cell-based. Particulars: Homo sapiens, HCC1806, 144 h, read-out: IC50 in HCC1806 Cells. The method, then:
CellTiter-Glo (CTG) is a rapid cell viability test method based on ATP detection. […] Adenosine triphosphate (ATP) participates in various enzymatic reactions in organisms and is an indicator of living cell metabolism. Its content directly reflects the number of living cells and cell status. During the experiment, equal volume of CTG reagent is added to the cultured cells to measure the luminescence value. The chemiluminescent signal value is proportional to the amount of ATP, thus reflecting the number of viable cells. Therefore, cell viability can be obtained by detecting the ATP content. Compounds that affect cell viability will inhibit cell viability in a concentration-dependent manner, allowing a curve to be fitted to obtain the IC50 value.
The experimental procedure is as follows: • 11. Place the cell suspension in a 15 mL centrifuge tube, centrifuge at 1000 rpm for 5 min at room temperature, discard the supernatant, and collect the cell pellet. • 12. Resuspend the cell pellet with preheated complete cell culture medium (RPMI1640+10%FBS+1%PS), and use a Countess® automated cell counter to detect cell viability and density. The cell viability must be above 90%. • 13. […] Transfer the compound solution to a 96-well plate seeded with cells (final concentration of DMSO 0.1%), and place in a cell incubator at 37°C, 5% CO2 for 6 days. • 15. […] Protect from light during the whole process. Perform optical signal readings using a SpectraMax i3x reader. • 16. Data analysis: Remaining activity (%) = 100% * (1 - ((LumDMSO - Lummedium) - Lumsample) / (LumDMSO - LumPBS/medium)). Use GraphPad Prism 9.0 software to draw an S-shaped dose-survival rate curve and calculate the IC50 value using a nonlinear regression model.

Setting [1] is: 100 nM compound, Jurkat cells, 24 h, Table 1.
[2] abbreviates: 1 µM compound, Jurkat cells, 24 h, Table 1.

Turning to `COc1cc(Nc2ncc3c(n2)-c2ccc(Cl)cc2C(c2c(F)cccc2OC)=NC3)ccc1C(=O)N1CC2(CCN(c3ccc(N4CCC(=O)NC4=O)cc3)CC2)C1` [Compound A42], at AURKA (setting [1]), the “Percentage of AURKA Degradation Induced by 100 nM Compound in Jurkat Cells” value (shortened to “Percentage … by 100 nM Compound in Jurkat Cells”) is on record as “+ (Degradation ≤ 30%)”. The “Percentage of AURKA Degradation Induced by 1 µM Compound in Jurkat Cells” value (shortened to “Percentage … by 1 µM Compound in Jurkat Cells”) at AURKA (setting [2]) is reported as “+ (Degradation ≤ 30%)”. Besides, the pIC50 with HCC1806 cells was < 5.00.
Turning to `O=C1CCN(c2ccc(N3CC4(CCN(C(=O)c5ccc(Nc6ncc7c(n6)-c6ccc(Cl)cc6C(c6c(F)cccc6F)=NC7)cc5)C4)C3)cc2)C(=O)N1` [Compound A43], the “Percentage … by 100 nM Compound in Jurkat Cells” value on AURKA (setting [1]) is “+ (Degradation ≤ 30%)”. On AURKA (setting [2]), the “Percentage … by 1 µM Compound in Jurkat Cells” value is listed as “+ (Degradation ≤ 30%)”. The pIC50 in the experiment with HCC1806 cells is < 5.00.
For the compound `COc1cc(Nc2ncc3c(n2)-c2ccc(Cl)cc2C(c2c(F)cccc2OC)=NC3)ccc1C(=O)N1CCC2(C1)CN(c1ccc(N3CCC(=O)NC3=O)cc1)C2` [Compound A44], the “Percentage … by 100 nM Compound in Jurkat Cells” value on AURKA (setting [1]) is listed as “+ (Degradation ≤ 30%)”. Besides, at AURKA (setting [2]), the “Percentage … by 1 µM Compound in Jurkat Cells” value is “+ (Degradation ≤ 30%)”. Also, in the experiment with HCC1806 cells, the pIC50 was > 6.00.
Regarding `COc1cc(Nc2ncc3c(n2)-c2ccc(Cl)cc2C(c2c(F)cccc2OC)=NC3)ccc1C(=O)NCCN1CCN(c2ncc(N3CCC(=O)NC3=O)cn2)CC1` [Compound A45], the “Percentage … by 100 nM Compound in Jurkat Cells” value at AURKA (setting [1]) is reported as “++ (30% < Degradation ≤ 70%)”. For the same compound, the “Percentage … by 1 µM Compound in Jurkat Cells” value on AURKA (setting [2]) is listed as “++ (30% < Degradation ≤ 70%)”. In addition, the pIC50 with HCC1806 cells was > 6.00.
Take `COc1cccc(F)c1C1=NCc2cnc(Nc3ccc(C(=O)NC4CC5(CCN(c6ccc(N7CCC(=O)NC7=O)cc6)CC5)C4)cc3)nc2-c2ccc(Cl)cc21` [Compound A46]: on AURKA (setting [1]), the “Percentage … by 100 nM Compound in Jurkat Cells” value is listed as “+++ (Degradation > 70%)”. The “Percentage … by 1 µM Compound in Jurkat Cells” value on AURKA (setting [2]) is given as “+++ (Degradation > 70%)”. Moreover, in the experiment on HCC1806 cells, the pIC50 is > 6.00.
Turning to `COc1cc(Nc2ncc3c(n2)-c2ccc(Cl)cc2C(c2c(F)cccc2OC)=NC3)ccc1C(=O)NCCN1CCN(c2ccc(C3CCC(=O)NC3=O)cc2)CC1` (stereo not drawn) [Compound A47], on AURKA, the “Percentage … by 100 nM Compound in Jurkat Cells” value is listed as “++ (key: +: Degradation ≤ 30%; ++: 30% < Degradation ≤ 70%; +++: Degradation > 70%)” and the “Percentage … by 1 µM Compound in Jurkat Cells” value is listed as “+ (key: +: Degradation ≤ 30%; ++: 30% < Degradation ≤ 70%; +++: Degradation > 70%)”. Besides, the pIC50 with HCC1806 cells is > 6.00.
Regarding `COc1cc(Nc2ncc3c(n2)-c2ccc(Cl)cc2C(c2c(F)cccc2OC)=NC3)ccc1C(=O)NC1CN(CCc2ccc(N3CCC(=O)NC3=O)cc2)C1` [Compound A48], the “Percentage … by 100 nM Compound in Jurkat Cells” value on AURKA (setting [1]) is given as “+ (Degradation ≤ 30%)”. Also, the “Percentage … by 1 µM Compound in Jurkat Cells” value at AURKA (setting [2]) was “+ (Degradation ≤ 30%)”. In the experiment with HCC1806 cells, the pIC50 is > 6.00.
Take `COc1cc(Nc2ncc3c(n2)-c2ccc(Cl)cc2C(c2c(F)cccc2OC)=NC3)ccc1C(=O)N[C@H]1C[C@H](C#Cc2ccc(N3CCC(=O)NC3=O)cc2)C1` [Compound A51]: at AURKA (setting [1]), the “Percentage … by 100 nM Compound in Jurkat Cells” value is given as “++ (30% < Degradation ≤ 70%)”. The “Percentage … by 1 µM Compound in Jurkat Cells” value at AURKA (setting [2]) was “+++ (Degradation > 70%)”. The pIC50 in the experiment on HCC1806 cells is 5.00 to 6.00.
On the same counts, the results for `O=C1CCN(c2cccc(C#C[C@H]3C[C@H](NC(=O)c4ccc(Nc5ncc6c(n5)-c5ccc(Cl)cc5C(c5c(F)cccc5F)=NC6)cc4)C3)c2)C(=O)N1` [Compound A52] are “++ (30% < Degradation ≤ 70%)”, “++ (30% < Degradation ≤ 70%)” and > 6.00.
For the compound `COc1cc(Nc2ncc3c(n2)-c2ccc(Cl)cc2C(c2c(F)cccc2OC)=NC3)ccc1C(=O)NC1CC2(CCN(c3ccc(N4CCC(=O)NC4=O)cn3)CC2)C1` [Compound A54], the “Percentage … by 100 nM Compound in Jurkat Cells” value at AURKA (setting [1]) was “+++ (Degradation > 70%)”. The “Percentage … by 1 µM Compound in Jurkat Cells” value on AURKA (setting [2]) is “+++ (Degradation > 70%)”. Besides, the pIC50 in the experiment on HCC1806 cells is > 6.00.
In the case of `O=C1CCN(c2ccc(N3CCC4(CC3)CC(NC(=O)c3ccc(Nc5ncc6c(n5)-c5ccc(Cl)cc5C(c5c(F)cccc5F)=NC6)cc3)C4)nc2)C(=O)N1` [Compound A55], at AURKA (setting [1]), the “Percentage … by 100 nM Compound in Jurkat Cells” value was “+++ (Degradation > 70%)”. Further, the “Percentage … by 1 µM Compound in Jurkat Cells” value at AURKA (setting [2]) is “+++ (Degradation > 70%)”. Besides, the negative-log IC50 (pIC50) in the experiment on HCC1806 cells is > 6.00.
`O=C1CCN(c2ccc(N3CC4(CCC(NC(=O)c5ccc(Nc6ncc7c(n6)-c6ccc(Cl)cc6C(c6c(F)cccc6F)=NC7)cc5)CC4)C3)cc2)C(=O)N1` [Compound A56]: the “Percentage … by 100 nM Compound in Jurkat Cells” value on AURKA (setting [1]) was “+++ (Degradation > 70%)”. Besides, on AURKA (setting [2]), the “Percentage … by 1 µM Compound in Jurkat Cells” value is “+++ (Degradation > 70%)”. Also, the pIC50 in the experiment with HCC1806 cells is > 6.00.
As to `COc1cc(Nc2ncc3c(n2)-c2ccc(Cl)cc2C(c2c(F)cccc2OC)=NC3)ccc1C(=O)NC1CCC2(CC1)CN(c1ccc(N3CCC(=O)NC3=O)cc1)C2` [Compound A57], the “Percentage … by 100 nM Compound in Jurkat Cells” value at AURKA (setting [1]) is on record as “+++ (Degradation > 70%)”. The “Percentage … by 1 µM Compound in Jurkat Cells” value on AURKA (setting [2]) is recorded as “+++ (Degradation > 70%)”. Besides, the pIC50 in the experiment with HCC1806 cells was > 6.00.
Regarding `COc1cc(Nc2ncc3c(n2)-c2ccc(Cl)cc2C(c2c(F)cccc2OC)=NC3)ccc1C(=O)NC1CC2(C1)CN(c1ccc(N3CCC(=O)NC3=O)cc1)C2` [Compound A58], the “Percentage … by 100 nM Compound in Jurkat Cells” value at AURKA (setting [1]) was “++ (30% < Degradation ≤ 70%)”. For the same compound, at AURKA (setting [2]), the “Percentage … by 1 µM Compound in Jurkat Cells” value is recorded as “++ (30% < Degradation ≤ 70%)”. The negative logarithm of the IC50 (pIC50) with HCC1806 cells is > 6.00.
As to `O=C1CCN(c2ccc(N3CC4(CC(NC(=O)c5ccc(Nc6ncc7c(n6)-c6ccc(Cl)cc6C(c6c(F)cccc6F)=NC7)cc5)C4)C3)cc2)C(=O)N1` [Compound A59], the “Percentage … by 100 nM Compound in Jurkat Cells” value at AURKA (setting [1]) was “++ (30% < Degradation ≤ 70%)”. Also, at AURKA (setting [2]), the “Percentage … by 1 µM Compound in Jurkat Cells” value is reported as “+++ (Degradation > 70%)”. Further, in the experiment with HCC1806 cells, the pIC50 is > 6.00.
On the same counts, the results for `O=C1CCN(c2ccc(N3CC4(CCC(NC(=O)c5ccc(Nc6ncc7c(n6)-c6ccc(Cl)cc6C(c6c(F)cccc6F)=NC7)cc5)CC4)C3)nc2)C(=O)N1` [Compound A61] are “+++ (Degradation > 70%)”, “+++ (Degradation > 70%)” and > 6.00.
On the same counts, the results for `COc1cccc(F)c1C1=NCc2cnc(Nc3ccc(C(=O)NC4CC5(C4)CN(c4cccc(N6CCC(=O)NC6=O)c4)C5)cc3)nc2-c2ccc(Cl)cc21` [Compound A63] are “++ (30% < Degradation ≤ 70%)”, “++ (30% < Degradation ≤ 70%)” and > 6.00.
Turning to `O=C1CCN(c2ccc(N3CCN(CCNC(=O)c4ccc(Nc5ncc6c(n5)-c5ccc(Cl)cc5C(c5c(F)cccc5F)=NC6)cc4)CC3=O)nc2)C(=O)N1` [Compound A64], at AURKA, the “Percentage … by 100 nM Compound in Jurkat Cells” value was “+++ (key: +: Degradation ≤ 30%; ++: 30% < Degradation ≤ 70%; +++: Degradation > 70%)” and the “Percentage … by 1 µM Compound in Jurkat Cells” value is “++ (key: +: Degradation ≤ 30%; ++: 30% < Degradation ≤ 70%; +++: Degradation > 70%)”. Besides, the negative-log IC50 (pIC50) in the experiment on HCC1806 cells was > 6.00.
Turning to `COc1cccc(F)c1C1=NCc2cnc(Nc3ccc(C(=O)NCCN4CCN(c5ccc(N6CCC(=O)NC6=O)cn5)C(=O)C4)cc3)nc2-c2ccc(Cl)cc21` [Compound A65], the “Percentage … by 100 nM Compound in Jurkat Cells” value on AURKA (setting [1]) was “+++ (Degradation > 70%)”. Further, the “Percentage … by 1 µM Compound in Jurkat Cells” value on AURKA (setting [2]) is “++ (30% < Degradation ≤ 70%)”. Further, the pIC50 in the experiment on HCC1806 cells was > 6.00.
On the same counts, the results for `O=C1CCN(c2ccc(N3CCN(CCNC(=O)c4ccc(Nc5ncc6c(n5)-c5ccc(Cl)cc5C(c5c(F)cccc5F)=NC6)cc4)CC34CC4)nc2)C(=O)N1` [Compound A66] are “+ (Degradation ≤ 30%)”, “+ (Degradation ≤ 30%)” and > 6.00.
